Assay results taken from the supplement of paper PMC10307832.

Experiments:
Experiment in all cases: relative viability (nuclei count vs DMSO), 5 days (fraction); higher = more cells survive
[1] = compound: CN(c1ncccc1CNc1nc(Nc2ccc3c(c2)CC(=O)N3)ncc1C(F)(F)F)S(C)(=O)=O + CC(=O)Nc1cccc(-n2c(=O)n(C3CC3)c(=O)c3c(Nc4ccc(I)cc4F)n(C)c(=O)c(C)c32)c1 [Trametinib] (partner 0.02 µM)
Summary of the method: (§1)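 Relative viability equals treated-well nuclei counts divided by vehicle-well nuclei counts. Counts came from 4× images of lung cancer cell lines grown in 1536-well plates for 5 days after pin-tool dosing on the day after seeding. Dosing used one drug alone or a fixed anchor-drug dose plus five library-drug doses (not always all listed) in √10 steps, and values are medians of duplicate plates.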

[2] = compound: CN(c1ncccc1CNc1nc(Nc2ccc3c(c2)CC(=O)N3)ncc1C(F)(F)F)S(C)(=O)=O + CC(C)C[C@H](NC(=O)[C@H](Cc1ccccc1)NC(=O)c1cnccn1)B(O)O [Bortezomib] (partner 0.002 µM)
Summary of the method: as §1

[3] = compound: CN(c1ncccc1CNc1nc(Nc2ccc3c(c2)CC(=O)N3)ncc1C(F)(F)F)S(C)(=O)=O + CS(=O)(=O)N1CCN(Cc2cc3nc(-c4cccc5[nH]ncc45)nc(N4CCOCC4)c3s2)CC1 [Pictilisib] (partner 1 µM)
Summary of the method: as §1

[4] = compound: CN(c1ncccc1CNc1nc(Nc2ccc3c(c2)CC(=O)N3)ncc1C(F)(F)F)S(C)(=O)=O + O=C(c1cc(Cc2n[nH]c(=O)c3ccccc23)ccc1F)N1CCN(C(=O)C2CC2)CC1 [Olaparib] (partner 8 µM)
Summary of the method: as §1

Cell Line	relative viability ([1]; first compound 0.01 µM)	relative viability ([1]; first compound 0.03162 µM)	relative viability ([1]; first compound 0.1 µM)	relative viability ([1]; first compound 0.3162 µM)	relative viability ([1]; first compound 1 µM)	relative viability ([2]; first compound 0.01 µM)	relative viability ([2]; first compound 0.03162 µM)	relative viability ([2]; first compound 0.1 µM)	relative viability ([2]; first compound 0.3162 µM)	relative viability ([2]; first compound 1 µM)	relative viability ([3]; first compound 0.01 µM)	relative viability ([3]; first compound 0.03162 µM)	relative viability ([3]; first compound 0.1 µM)	relative viability ([3]; first compound 0.3162 µM)	relative viability ([3]; first compound 1 µM)	relative viability ([4]; first compound 0.01 µM)	relative viability ([4]; first compound 0.03162 µM)	relative viability ([4]; first compound 0.1 µM)	relative viability ([4]; first compound 0.3162 µM)	relative viability ([4]; first compound 1 µM)
NCI-H2085	0.564	0.461	0.551	0.619	0.471	1.06	1.11	1.04	1	0.949	0.449	0.49	0.624	0.469	0.515	0.79	0.81	0.71	0.759	0.696
NCI-H2087	0.137	0.233	0.199	0.196	0.224	1.13	0.699	0.882	0.807	0.768	0.852	0.77	0.978	0.914	0.951	0.634	0.639	0.614	0.464	0.668
NCI-H2126	0.51	0.65	0.483	0.591	0.537	1.12	1.1	1.04	1.1	1.1	0.495	0.469	0.452	0.533	0.459	0.879	1.01	0.865	0.867	0.795
NCI-H2228	0.553	0.81	0.473	0.384	0.483	0.817	1.24	1.05	1.06	1.02	0.422	0.453	0.376	0.358	0.294	0.619	1.01	0.665	0.766	0.539
NCI-H2347	0.276	0.268	0.27	0.277	0.255	1.08	0.93	0.927	0.801	0.45	0.609	0.614	0.74	0.919	0.362	0.598	0.546	0.525	0.515	0.443
NCI-H2405	0.633	0.676	0.596	0.596	0.584	1.05	0.972	1.03	0.865	0.813	0.552	0.393	0.42	0.383	0.376	0.879	0.922	0.78	0.702	0.641
NCI-H3122	0.244	0.257	0.214	0.22	0.201	1.04	1.03	1.01	0.968	0.891	0.599	0.673	0.627	0.572	0.584	0.658	0.65	0.604	0.568	0.574
PC-3 [JPC-3]	0.669		0.712	0.696	0.554	0.853	0.801	0.827	0.855	0.829	0.747	0.723	0.75	0.782	0.71	1.13		1.05	1.08	1.04
PC-14	0.82	0.909	0.891	0.726	0.619	1.02	0.935	0.984	0.799	0.821	0.829	0.872	0.716	0.66	0.533	0.38	0.282	0.271	0.261	0.243
RERF-LC-KJ	0.76	0.905	0.949	0.904	0.937	1.08	1.23	1.11	1.13	0.999	0.494	0.577	0.551	0.548	0.622	0.983	0.945	0.97	0.849	0.927
SK-LU-1	0.479	0.556	0.489	0.449	0.45	1.33	1.28	0.839	1.24	1.12	0.519	0.53	0.473	0.554	0.423	0.411	0.433	0.38	0.408	0.445
SW 1573	0.568	0.567	0.531	0.636	0.449	1.17	0.898	0.977	1.05	1.11	0.584	0.52	0.422	0.573	0.454	0.491	0.682	0.443	0.517	0.398
UMC-11	0.762	0.761	0.794	0.72	0.539	0.795	0.634	0.649	0.589	0.672	0.759	0.843	0.793	0.847	0.708	0.413	0.545	0.364	0.439	0.363
